Key:
[1] = test system: Resistant Plutella xylostella R4 (carries the RyR mutation G4946E); assay: Resistant Plutella xylostella R4 (Diamond back moth) larvicide L1, feeding/contact, artificial diet in 24-well plates; format: in vivo; conditions: Plutella xylostella, 192 h, read-out: control of the resistant strain of Plutella xylostella R4
Description: Resistant Plutella xylostella R4 (Diamond back moth) larvicide L1, feeding/contact 24-well microtiter plates with artificial diet were treated with aqueous test solutions prepared from 10′000 ppm DMSO stock solutions by pipetting. After drying, around 30 Plutella eggs were pipetted through a plastic stencil onto a gel blotting paper and the plate was closed with it. The samples were assessed for mortality in comparison to untreated samples 8 days after infestation.
Chlorantraniliprole was used as standard and a resistance factor of 242 was obtained for this strain
Plutella xylostella resistant strain R4 originated in the lab in 2021 from crossing the R1 strain with a lab-reared susceptible P. xylostella strain (SUS). R4 can be reared and tested on artificial diet and also carries the RyR mutation G4946E conferring resistance to diamides. The strain is selected approximately every two weeks with chlorantraniliprole. The following compounds, according to the present invention, gave at least 80% control of the resistant strain of Plutella xylostella R4 at 50 ppm or below: P11, P18, P26, P31, P33, P34, P36, P38, P42, P43, P46, P49, P50, P52, P56, P58, P60, P61, P63, P64, P65, P66, P67, P73, P76, P84, P97, P99, P102, P105.

[2] = test system: Resistant Plutella xylostella R1 (multi-resistant larvae having the G4946E resistance mutation); assay: Resistant Plutella xylostella R1 (Diamond back moth) larvicide L3, feeding/contact, sprayed Chinese cabbage leaves; format: in vivo; conditions: Plutella xylostella, 96 h, read-out: control of the resistant strain of Plutella xylostella R1
Description: Resistant Plutella xylostella R1 (Diamond back moth) larvicide L3, feeding/contact Chinese cabbage plants were sprayed with diluted test solutions in an application chamber. Cut off leaves were placed into petri dishes with wetted filter paper and infested 1 day after application with 10 L3 multi-resistant Plutella xylostella larvae having the G4946E resistance mutation.
Samples were assessed 4 days after infestation for mortality and growth regulation.
Chlorantraniliprole was used as standard and a resistance factor of 146 was obtained for this strain.
Plutella xylostella resistant strain R1 originally collected from Taiwan in 2012 that carries the RyR mutation G4946E conferring resistance to diamides. The strain is reared on cabbage plants (Brassica aleracea) and selected approximately every two weeks with chlorantraniliprole.

[3] = test system: Plutella xylostella (Diamond back moth) ryanodine receptor, containing the G4946E resistance mutation; assay: In vitro calcium fluorescence assay (Fluo-8 NW, FDSS) in human embryonic kidney cells expressing the ryanodine receptor; format: cell-based; conditions: table; EC50 (compound)/EC50 (cyantraniliprole); G4946E RyR in HEK cells
Description: Human embryonic kidney cells expressing the Plutella xylostella (Diamond back moth) ryanodine receptor, containing the G4946E resistance mutation, are loaded with Fluo-8 No Wash (NW) calcium-sensitive dye which responds by fluorescence to a change in intracellular calcium (e.g. stimulated by activation of ryanodine receptor). Test compounds are added in 10 rates to a 384-well plate containing dye-loaded cells and the fluorescent signal is measured using the Hamamatsu FDSS (Functional Drug Screening system). Dose-response curves are plotted to estimate the EC50. EC50 are normalized against an in-assay reference standard (cyantraniliprole) to address inter-assay variability. The ratio for a given compound is then obtained by the following formula:
REC50=EC50 (compound)/EC50 (cyantraniliprole).

SMILES | pest or weed control at 50 µg/mL [1] [%] | pest or weed control at 50 µg/mL [2] [%] | REC50 (Compound of the invention) [3]
Cc1cc(I)cc(C(N)=O)c1NC(=O)c1cc(OCC(F)(F)F)nn1-c1ncccc1Cl [Compound P11, N-(2-carbamoyl-4-iodo-6-methyl-phenyl)-2-(3-chloro-2-pyridyl)-5-(2,2,2-trifluoroethoxy)pyrazole-3-carboxamide] | ≥ 80 | ≥ 80 | 
Cc1cc(I)cc(C(N)=O)c1NC(=O)c1cc(C(F)(F)F)nn1-c1ncccc1Cl [Compound P27, N-(2-carbamoyl-4-iodo-6-methyl-phenyl)-2-(3-chloro-2-pyridyl)-5-(trifluoromethyl)pyrazole-3-carboxamide] |  | ≥ 80 | 0.18
Cc1cc(C#N)cc(C(N)=O)c1NC(=O)c1cc(Br)nn1-c1ncccc1Cl [Compound P30, 5-bromo-N-(2-carbamoyl-4-cyano-6-methyl-phenyl)-2-(3-chloro-2-pyridyl) pyrazole-3-carboxamide] |  | ≥ 80 | 0.39
NC(=O)c1cc(Br)cc(Cl)c1NC(=O)c1cc(I)nn1-c1ncccc1Cl [Compound P36, N-(4-bromo-2-carbamoyl-6-chloro-phenyl)-2-(3-chloro-2-pyridyl)-5-iodo-pyrazole-3-carboxamide] | ≥ 80 | ≥ 80 | 
Cc1cc(Br)cc(C(N)=O)c1NC(=O)c1cc(Cn2ncc(C(F)(F)F)n2)nn1-c1ncccc1Cl [Compound P38, N-(4-bromo-2-carbamoyl-6-methyl-phenyl)-2-(3-chloro-2-pyridyl)-5-[[4-(trifluoromethyl)triazol-2-yl]methyl]pyrazole-3-carboxamide] | ≥ 80 | ≥ 80 | 
NC(=O)c1cc(Br)cc(F)c1NC(=O)c1cc(C(F)(F)F)nn1-c1ncccc1Cl [Compound P42, N-(4-bromo-2-carbamoyl-6-fluoro-phenyl)-2-(3-chloro-2-pyridyl)-5-(trifluoromethyl)pyrazole-3-carboxamide] | ≥ 80 |  | 
Cc1cc(Br)cc(C(N)=O)c1NC(=O)c1cc(Cn2nnc(-c3ccc(C(F)(F)F)cc3)n2)nn1-c1ncccc1Cl [Compound P43, N-(4-bromo-2-carbamoyl-6-methyl-phenyl)-2-(3-chloro-2-pyridyl)-5-[[5-[4-(trifluoromethyl)phenyl]tetrazol-2-yl]methyl]pyrazole-3-carboxamide] | ≥ 80 | ≥ 80 | 
NC(=O)c1cc(Br)cc(Br)c1NC(=O)c1cc(C(F)(F)F)nn1-c1ncccc1Cl [Compound P46, 2-(3-chloro-2-pyridyl)-N-(2,4-dibromo-6-carbamoyl-phenyl)-5-(trifluoromethyl)-pyrazole-3-carboxamide] | ≥ 80 |  | 0.39
Cc1cc(Cl)cc(C(N)=O)c1NC(=O)c1cc(Cn2nnc(-c3ccc(Br)cc3)n2)nn1-c1ncccc1Cl [Compound P49, 5-[[5-(4-bromophenyl)tetrazol-2-yl]methyl]-N-(2-carbamoyl-4-chloro-6-methyl-phenyl)-2-(3-chloro-2-pyridyl)pyrazole-3-carboxamide] | ≥ 80 | ≥ 80 | 
NC(=O)c1cc(Cl)cc(Cl)c1NC(=O)c1cc(I)nn1-c1ncccc1Cl [Compound P50, N-(2-carbamoyl-4,6-dichloro-phenyl)-2-(3-chloro-2-pyridyl)-5-iodo-pyrazole-3-carboxamide] | ≥ 80 | ≥ 80 | 
NC(=O)c1cc(Cl)cc(Br)c1NC(=O)c1cc(Cn2ncc(C(F)(F)F)n2)nn1-c1ncccc1Cl [Compound P52, N-(2-bromo-6-carbamoyl-4-chloro-phenyl)-2-(3-chloro-2-pyridyl)-5-[[4-(trifluoromethyl)triazol-2-yl]methyl] pyrazole-3-carboxamide] | ≥ 80 |  | 
Cc1cc(Cl)cc(C(N)=O)c1NC(=O)c1cc(OCC(F)F)nn1-c1ncccc1Cl [Compound P56, N-(2-carbamoyl-4-chloro-6-methyl-phenyl)-2-(3-chloro-2-pyridyl)-5-(2,2-difluoroethoxy)pyrazole-3-carboxamide] | ≥ 80 |  | 
NC(=O)c1cc(Cl)cc(Cl)c1NC(=O)c1cc(Cn2nnc(-c3ccc(C(F)(F)F)cc3)n2)nn1-c1ncccc1Cl [Compound P58, N-(2-carbamoyl-4,6-dichloro-phenyl)-2-(3-chloro-2-pyridyl)-5-[[5-[4-(trifluoromethyl)phenyl]tetrazol-2-yl]methyl]pyrazole-3-carboxamide] | ≥ 80 | ≥ 80 | 
NC(=O)c1cc(I)cc(Cl)c1NC(=O)c1cc(C(F)(F)F)nn1-c1ncccc1Cl [Compound P60, N-(2-carbamoyl-6-chloro-4-iodo-phenyl)-2-(3-chloro-2-pyridyl)-5-(trifluoromethyl)pyrazole-3-carboxamide] | ≥ 80 |  | 
NC(=O)c1cc(I)cc(Cl)c1NC(=O)c1cc(Br)nn1-c1ncccc1Cl [Compound P61, 5-bromo-N-(2-carbamoyl-6-chloro-4-iodo-phenyl)-2-(3-chloro-2-pyridyl) pyrazole-3-carboxamide] | ≥ 80 |  | 
NC(=O)c1cc(I)cc(F)c1NC(=O)c1cc(C(F)(F)F)nn1-c1ncccc1Cl [Compound P64, N-(2-carbamoyl-6-fluoro-4-iodo-phenyl)-2-(3-chloro-2-pyridyl)-5-(trifluoromethyl)pyrazole-3-carboxamide] | ≥ 80 |  | 0.69
NC(=O)c1cc(I)cc(F)c1NC(=O)c1cc(Br)nn1-c1ncccc1Cl [Compound P65, 5-bromo-N-(2-carbamoyl-6-fluoro-4-iodo-phenyl)-2-(3-chloro-2-pyridyl) pyrazole-3-carboxamide] | ≥ 80 |  | 
Cc1cc(C#N)cc(C(N)=O)c1NC(=O)c1cc(I)nn1-c1ncccc1Cl [Compound P66, N-(2-carbamoyl-4-cyano-6-methyl-phenyl)-2-(3-chloro-2-pyridyl)-5-iodo-pyrazole-3-carboxamide] | ≥ 80 |  | 
Cc1cc(Cl)cc(C(N)=O)c1NC(=O)c1cc(Br)nn1-c1ncccc1Br [Compound P73, 5-bromo-2-(3-bromo-2-pyridyl)-N-(2-carbamoyl-4-chloro-6-methyl-phenyl)pyrazole-3-carboxamide] | ≥ 80 |  | 
Cc1cc(Cl)cc(C(N)=O)c1NC(=O)c1cc(Cn2nnc(-c3ccc(F)cc3)n2)nn1-c1ncccc1Cl [Compound P84, N-(2-carbamoyl-4-chloro-6-methyl-phenyl)-2-(3-chloro-2-pyridyl)-5-[[5-(4-fluorophenyl)tetrazol-2-yl]methyl] pyrazole-3-carboxamide] | ≥ 80 |  | 
Cc1cc(Cl)cc(C(N)=O)c1NC(=O)c1cc(Cn2nnc(-c3cccc(C(F)(F)F)c3)n2)nn1-c1ncccc1Cl [Compound P97, N-(2-carbamoyl-4-chloro-6-methyl-phenyl)-2-(3-chloro-2-pyridyl)-5-[[5-[3-(trifluoromethyl)phenyl]tetrazol-2-yl]methyl]pyrazole-3-carboxamide] | ≥ 80 |  | 
Cc1cc(-c2nnn(Cc3cc(C(=O)Nc4c(C)cc(Cl)cc4C(N)=O)n(-c4ncccc4Cl)n3)n2)ccc1Cl [Compound P99, N-(2-carbamoyl-4-chloro-6-methyl-phenyl)-5-[[5-(4-chloro-3-methyl-phenyl)tetrazol-2-yl]methyl]-2-(3-chloro-2-pyridyl)pyrazole-3-carboxamide] | ≥ 80 |  | 
Cc1cc(Cl)cc(C(N)=O)c1NC(=O)c1cc(Cn2nnc(-c3ccc(F)c(Br)c3)n2)nn1-c1ncccc1Cl [Compound P102, 5-[[5-(3-bromo-4-fluoro-phenyl)tetrazol-2-yl]methyl]-N-(2-carbamoyl-4-chloro-6-methyl-phenyl)-2-(3-chloro-2-pyridyl)pyrazole-3-carboxamide] | ≥ 80 |  | 
Cc1cc(Cl)cc(C(N)=O)c1NC(=O)c1cc(Cn2nnc(-c3ccccc3)n2)nn1-c1ncccc1Cl [Compound P105, N-(2-carbamoyl-4-chloro-6-methyl-phenyl)-2-(3-chloro-2-pyridyl)-5-[(5-phenyltetrazol-2-yl)methyl] pyrazole-3-carboxamide] | ≥ 80 |  | 
